Where “and” joins values, the source holds several entries; their conditions need not be identical. Identical values can stand only once. Like-named read-outs stand apart in the source and are kept apart here.
Assays:
Arabidopsis HPPD [1] = target: T1, Arabidopsis HPPD (Arabidopsis thaliana, UniProt P93836); assay: Rate of binding (kon) by radiolabelled inhibitor and separation of bound from free
T1 construct: made in house; host or cells: E. coli BL21 (DE3) codon+ RP
T1 sequence (P93836 1-445): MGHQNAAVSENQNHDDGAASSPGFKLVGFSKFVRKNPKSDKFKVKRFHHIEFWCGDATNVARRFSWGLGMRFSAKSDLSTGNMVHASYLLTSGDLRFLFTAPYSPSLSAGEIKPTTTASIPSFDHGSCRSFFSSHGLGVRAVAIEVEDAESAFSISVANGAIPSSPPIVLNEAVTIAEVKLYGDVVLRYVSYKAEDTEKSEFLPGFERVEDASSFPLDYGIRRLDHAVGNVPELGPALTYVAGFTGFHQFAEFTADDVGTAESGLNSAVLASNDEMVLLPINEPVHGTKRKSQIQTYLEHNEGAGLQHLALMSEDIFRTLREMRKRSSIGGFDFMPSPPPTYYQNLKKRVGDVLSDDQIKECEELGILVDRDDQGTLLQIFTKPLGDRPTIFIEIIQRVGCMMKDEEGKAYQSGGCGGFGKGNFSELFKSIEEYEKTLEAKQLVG
From the text: Alternatively estimates of kon values can be determined more directly by mixing HPPD with radio or otherwise labelled herbicide inhibitor and monitoring the progress of the binding reaction, optionally by rapidly isolating the enzyme inhibitor complex and/or by any one of a number of methods (for example fluorimetry, EPR, NMR, radiodetection etc). For example, the reaction with HPPD may be started by addition of radiolabelled herbicide, allowed to proceed for a series of different times and rapidly quenched by addition and mixing with a large excess of unlabelled inhibitor. In this case the extent of binding at different times may, for example, be monitored by using ultrafiltration, binding to filters or gel filtration to separate radiolabel-bound to HPPD from unbound label which fractions can then each be quantitated by scintillation counting. […]
The measurements of koff are based on physical rather than assay-based measurements. Similarly, kon rates can also be measured by a direct physical method, in this case the use of radiolabelled inhibitor and physical separation of protein bound from free inhibitor. […] The rates of binding determined on the basis of measurement of the amount of radiolabelled inhibitor bound after various times of reaction are found to correlate very well with measurements based upon assay-based measurements of the rate of decline of enzyme activity. […]

Arabidopsis HPPD [2] = target: T1, Arabidopsis HPPD; assay: Dissociation of enzyme/inhibitor complexes by exchange with 14C-labelled inhibitor (koff; Kd = koff/kon); type: binding
Procedure: It will be appreciated that many suitable methods known in the art for determining such low koff values are suitable for working the current invention. These include measuring rates of exchange of radio or otherwise labelled inhibitors either with or away from the enzyme inhibitor complex. For example enzyme inhibitor complexes can readily be prepared by incubating HPPD preparations with labelled or unlabelled inhibitor and then, after suitable periods, optionally rapidly separating the thus formed enzyme inhibitor complex from excess inhibitor by any suitable method such as ultrafiltration, binding to filters or exchange down a gel filtration column. Exchange reactions with the, thus prepared enzyme inhibitor complex is then initiated by addition of, as appropriate, excess labelled or unlabelled inhibitor. […] Many methods such as radiometric, fluorimetric, NMR, fluorescence depolarisation, EPR, Mossbauer, UV/VIS spectrophotometry etc. or phonon resonance can, in principle, be used to monitor the enzyme/ligand exchange reactions and, particularly in this case where the enzyme contains an iron atom at the ligand binding site. Optionally, the monitoring method may be continuous (as, for example, with scintillation proximity/bead-based methods) or, discontinuous, based upon collection of data at various timepoints wherein samples are removed and the bound and unbound label components rapidly separated and quantitated.
Values of koff can suitably be calculated by computer fitting based upon is numerical integration of the exchange data along with information on the active-site concentration of HPPD and upon kon values obtained as described below. […] In any event, koff values are always here calculated from the rate of the major slow exchange reaction.
^14C mesotrione is of specific activity 1.12 GBq/mmol. […] Following this initial binding reaction, exchange reactions are initiated by addition of cold mesotrione to a final concentration of 60 μM and 200 μl aliquots removed at various times to rapid chromatography down a NAP5 gel filtration column equilibrated in 50 mM BTP at pH 7 containing 0.1 M KCl, separation into fractions containing protein-bound or free radiolabel and liquid scintillation counting.
Nevertheless, here, for practical purposes, koff values are always here calculated from the rate of the major slow exchange reaction.
Not all test inhibitors are readily available in a radiolabelled form.

Row | SMILES | kon (Arabidopsis HPPD [1]; without 25% v/v glycerol) [M⁻¹ s⁻¹] | Kd (Arabidopsis HPPD [2]) [nM] | ratio Kd2/Kd4, structure II to structure VII (Arabidopsis HPPD [2]) | ratio koff2/koff4, structure II to structure VII (Arabidopsis HPPD [2]) | koff (Arabidopsis HPPD [2]; without 25% v/v glycerol, exchange with 14C mesotrione) [s⁻¹] | koff (Arabidopsis HPPD [2]; − glycerol) [s⁻¹] | rate constant of subsequent much slower binding to the remaining site (Arabidopsis HPPD [1]; 25% v/v glycerol) [M⁻¹ s⁻¹] | Kd (Arabidopsis HPPD [2]; Kd, value obtained + glycerol (in parentheses)) [nM] | Kd (Arabidopsis HPPD [2]; Kd, without glycerol, Kd = koff/kon) [nM]
1 | Cc1nc(C(F)(F)F)ccc1C(=O)C1C(=O)C2CCC(C2)C1=O (stereo not drawn) [Structure II] | 800000 | 0.11 | 3.4 | 11 and 8.6 | ~1.16e-05 | 1.16e-05 | – | – | –
2 | CS(=O)(=O)c1ccc(C(=O)C2C(=O)CCCC2=O)c([N+](=O)[O-])c1 [Structure I, 2-(Nitro-4-methanesulphonylbenzoyl)-cyclohexane-1,3-dione, reference compound] | – | – | – | – | – | – | ~1000 | 0.021 | 0.014
